From PubChem BioAssay (NCI) come the findings set out here.

Among the test systems are BT-549 breast; SN12C renal; T-47D breast; U251 CNS; KM12 colon; SK-OV-3 ovarian; SR leukemia; CAKI-1 renal; SK-MEL-5 melanoma; HOP-62 NSCLC.
What all share (assay): growth of human tumour cells (NCI), 48 h

Molecules are shown by their SMILES.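 Where inhibition never reached the appropriate level, the endpoint shown equals the highest concentration tested. Otherwise, values were interpolated linearly from a five-concentration, 48-hour dose response in 96-well plates. Abbreviation: GI50, concentration required for 50% inhibition of growth. At the TGI there is no net growth.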

For the compound `CC12OC(C(=O)C13CCC3)C1C(=O)c3c(O)ccc(O)c3C(=O)C12` (stereo unspecified), the GI50 in the assay with BT-549 breast was 5.97 µM; with SN12C renal, 0.0256 µM; in the assay with T-47D breast, 0.948 µM; with U251 CNS it was 2.47 µM; with KM12 colon, 2.91 µM; with SK-OV-3 ovarian, 18.6 µM. The GI50 in the assay on SR leukemia is 0.29 µM; with CAKI-1 renal, 0.817 µM; in the assay on SK-MEL-5 melanoma it was 11 µM; in the assay on HOP-62 NSCLC, 3.01 µM. For the same compound, the TGI is 16.4 µM with BT-549 breast; 0.0729 µM in the assay with SN12C renal; 3.2 µM with T-47D breast; above 22.8 µM in the assay on U251 CNS; 10.5 µM with KM12 colon; 54.3 µM with SK-OV-3 ovarian. The TGI with SR leukemia was determined as 2.23 µM; in the assay on CAKI-1 renal, 2.62 µM; with SK-MEL-5 melanoma it was 26.1 µM; in the assay on HOP-62 NSCLC, 15.6 µM.
Take `CN(CCN1C(=O)c2cccc3cccc(c23)C1=O)CCN1C(=O)c2cccc3cccc(c23)C1=O`: the TGI in the assay with BT-549 breast is above 100 µM; in the assay on SN12C renal, above 100 µM; in the assay with T-47D breast, 10.2 µM; with U251 CNS, 24.7 µM; in the assay on KM12 colon it was above 100 µM; with SK-OV-3 ovarian it was 16.6 µM. Also, the TGI is 13 µM with SR leukemia, above 100 µM in the assay with CAKI-1 renal, above 100 µM in the assay with SK-MEL-5 melanoma and 26.4 µM in the assay with HOP-62 NSCLC.
As to `CC(CCCCNC(=O)OC(C)(C)C)NC(=O)NC(C)CCCCNC(=O)OC(C)(C)C` (stereo unspecified), the TGI in the assay with BT-549 breast, with SN12C renal, in the assay with T-47D breast, in the assay with U251 CNS, with KM12 colon and with SK-OV-3 ovarian was above 100 µM each time. Besides, the TGI with SR leukemia, in the assay on CAKI-1 renal, in the assay on SK-MEL-5 melanoma and in the assay on HOP-62 NSCLC was above 100 µM in each case.
As to `CC(NC(=O)c1ccc(OP(=O)(OCc2ccc([N+](=O)[O-])o2)N(C)CCCCCl)cc1)c1ccc(OCC2CCCCC2)c(C(N)=O)c1` (stereo unspecified), the TGI in the assay with BT-549 breast was 5.94 µM; in the assay on SN12C renal, 6.15 µM; in the assay on T-47D breast, above 20.1 µM; with U251 CNS it was above 32.3 µM; with KM12 colon it was 13.5 µM; in the assay on SK-OV-3 ovarian it was above 100 µM. Moreover, the TGI was 4.43 µM in the assay on SR leukemia, above 58 µM in the assay on CAKI-1 renal, 6.14 µM with SK-MEL-5 melanoma and 36.7 µM with HOP-62 NSCLC.
As to `CCCC(=O)Nc1cc(/C=C/C(=O)N2CC(CCl)c3c2cc(OC(C)=O)c2[nH]cc(C)c32)n(C)c1` (stereo unspecified), the TGI with BT-549 breast was 0.00227 µM; with SN12C renal it was 0.00519 µM; in the assay on T-47D breast, 0.0689 µM; in the assay on U251 CNS, 0.105 µM; with KM12 colon, 0.00247 µM; in the assay on SK-OV-3 ovarian it was 0.0691 µM. Moreover, the TGI is above 0.25 µM in the assay on SR leukemia, 5.84e-05 µM in the assay with SK-MEL-5 melanoma and 0.00389 µM with HOP-62 NSCLC.
Consider `CCOC(=O)c1cccc(N=Nc2ncc(/C=C/C(=O)OC)[nH]2)c1`, for which the TGI was above 100 µM in the assay with BT-549 breast; 48.5 µM in the assay on SN12C renal; 89.7 µM with T-47D breast; above 100 µM in the assay on U251 CNS; 82.2 µM in the assay with KM12 colon; above 100 µM in the assay with SK-OV-3 ovarian. In addition, the TGI with SR leukemia is above 100 µM; in the assay on CAKI-1 renal it was above 100 µM; in the assay on SK-MEL-5 melanoma it was 30.1 µM; with HOP-62 NSCLC, 51.3 µM.
As to `O=C1/C(=C/c2ccc([N+](=O)[O-])cc2)Sc2scc(-c3cccc([N+](=O)[O-])c3)[n+]21`, the TGI is 18.7 µM with BT-549 breast; 17.3 µM in the assay on SN12C renal; 24.3 µM in the assay with T-47D breast; 25.6 µM in the assay with U251 CNS; 24.6 µM with KM12 colon; 30.6 µM in the assay on SK-OV-3 ovarian. Besides, the TGI in the assay on CAKI-1 renal was 7.03 µM; in the assay with SK-MEL-5 melanoma it was 18.6 µM; in the assay on HOP-62 NSCLC, 33.9 µM.
`CN(CCCNC(=O)c1nn(-c2ccccc2)c2c1Cc1ccccc1-2)CCCNC(=O)c1nn(-c2ccccc2)c2c1Cc1ccccc1-2`: the TGI with BT-549 breast was determined as 3.21 µM; with SN12C renal, 3.2 µM; with T-47D breast it was 3.6 µM; in the assay with U251 CNS, 2.82 µM; in the assay with SK-OV-3 ovarian it was 3.23 µM; in the assay on SR leukemia, 1.42 µM. For the same compound, the TGI in the assay on CAKI-1 renal worked out at 2.46 µM; in the assay with SK-MEL-5 melanoma, 3.02 µM.
Turning to `CC(C)C(=O)CC(c1ccc(Br)cc1)N1N=C(C(C)C)CC1c1ccc(Br)cc1` (stereo unspecified), the TGI with SN12C renal, with U251 CNS, with KM12 colon, in the assay on SK-OV-3 ovarian, in the assay on SR leukemia and in the assay with CAKI-1 renal was above 100 µM each time. In the assay on HOP-62 NSCLC, this compound gave a TGI above 100 µM.
Take `COc1cc(/C=C2\CC3C4CC[C@H]5C[C@@H](O)CC[C@]5(C)C4CC[C@]3(C)\C2=N\O)cc(OC)c1OC` (stereo partly specified): the TGI came to 42.1 µM in the assay on BT-549 breast; 41.9 µM with SN12C renal; 36.9 µM with T-47D breast; 30.9 µM in the assay with U251 CNS; 56.7 µM in the assay with KM12 colon; 72.3 µM in the assay on SK-OV-3 ovarian. Besides, the TGI in the assay on CAKI-1 renal came to 29.3 µM; in the assay on SK-MEL-5 melanoma, 30.7 µM; in the assay on HOP-62 NSCLC it was 38.9 µM.
For `CC(C)(C)COS(=O)OCC(C)(C)C`, the TGI in the assay with BT-549 breast, in the assay with SN12C renal, in the assay on T-47D breast, with U251 CNS, in the assay on KM12 colon and with SK-OV-3 ovarian was above 100 µM throughout. Further, the TGI with SR leukemia, in the assay with CAKI-1 renal, in the assay on SK-MEL-5 melanoma and in the assay on HOP-62 NSCLC was above 100 µM each time.
For the compound `CC1(C)CC(C(=O)OCCCCCCCCCCC[P+](c2ccccc2)(c2ccccc2)c2ccccc2)C(C)(C)N1O` (stereo unspecified), the GI50 in the assay on BT-549 breast is 0.116 µM; in the assay with U251 CNS, 0.0596 µM; in the assay with KM12 colon it was 0.151 µM; in the assay with SK-OV-3 ovarian, 0.248 µM; in the assay with CAKI-1 renal it was 0.781 µM; with SK-MEL-5 melanoma it was 0.15 µM. Also, the GI50 in the assay on HOP-62 NSCLC is 0.319 µM. In addition, the TGI was determined as 1.05 µM in the assay on BT-549 breast; 1.11 µM in the assay with U251 CNS; 1.13 µM in the assay with KM12 colon; 0.711 µM in the assay on SK-OV-3 ovarian; 2.32 µM in the assay on CAKI-1 renal; 0.299 µM in the assay on SK-MEL-5 melanoma. This compound registered a TGI in the assay with HOP-62 NSCLC of 0.904 µM.
